Source: US12662451B2, “Chemical compounds and uses thereof” (GLAXOSMITHKLINE INTELLECTUAL PROPERTY (NO.4) LIMITED, priority 2023, dated 2026)
Like-named read-outs stand apart in the source and are kept apart here.

What was measured:
[1] = target: T1, recombinant full-length WRN protein (1-1432) (Homo sapiens, UniProt Q14191); assay: WRN unwinding activity, fluorogenic 384-well assay (Example A); assay type: biochemical; conditions: WRN unwinding activity, 4 hr; Table 2; read-out: 4 hr UNW pIC50 (converted)
T1 construct: recombinant full-length WRN protein (1-1432)
T1 sequence (Q14191 whole entry): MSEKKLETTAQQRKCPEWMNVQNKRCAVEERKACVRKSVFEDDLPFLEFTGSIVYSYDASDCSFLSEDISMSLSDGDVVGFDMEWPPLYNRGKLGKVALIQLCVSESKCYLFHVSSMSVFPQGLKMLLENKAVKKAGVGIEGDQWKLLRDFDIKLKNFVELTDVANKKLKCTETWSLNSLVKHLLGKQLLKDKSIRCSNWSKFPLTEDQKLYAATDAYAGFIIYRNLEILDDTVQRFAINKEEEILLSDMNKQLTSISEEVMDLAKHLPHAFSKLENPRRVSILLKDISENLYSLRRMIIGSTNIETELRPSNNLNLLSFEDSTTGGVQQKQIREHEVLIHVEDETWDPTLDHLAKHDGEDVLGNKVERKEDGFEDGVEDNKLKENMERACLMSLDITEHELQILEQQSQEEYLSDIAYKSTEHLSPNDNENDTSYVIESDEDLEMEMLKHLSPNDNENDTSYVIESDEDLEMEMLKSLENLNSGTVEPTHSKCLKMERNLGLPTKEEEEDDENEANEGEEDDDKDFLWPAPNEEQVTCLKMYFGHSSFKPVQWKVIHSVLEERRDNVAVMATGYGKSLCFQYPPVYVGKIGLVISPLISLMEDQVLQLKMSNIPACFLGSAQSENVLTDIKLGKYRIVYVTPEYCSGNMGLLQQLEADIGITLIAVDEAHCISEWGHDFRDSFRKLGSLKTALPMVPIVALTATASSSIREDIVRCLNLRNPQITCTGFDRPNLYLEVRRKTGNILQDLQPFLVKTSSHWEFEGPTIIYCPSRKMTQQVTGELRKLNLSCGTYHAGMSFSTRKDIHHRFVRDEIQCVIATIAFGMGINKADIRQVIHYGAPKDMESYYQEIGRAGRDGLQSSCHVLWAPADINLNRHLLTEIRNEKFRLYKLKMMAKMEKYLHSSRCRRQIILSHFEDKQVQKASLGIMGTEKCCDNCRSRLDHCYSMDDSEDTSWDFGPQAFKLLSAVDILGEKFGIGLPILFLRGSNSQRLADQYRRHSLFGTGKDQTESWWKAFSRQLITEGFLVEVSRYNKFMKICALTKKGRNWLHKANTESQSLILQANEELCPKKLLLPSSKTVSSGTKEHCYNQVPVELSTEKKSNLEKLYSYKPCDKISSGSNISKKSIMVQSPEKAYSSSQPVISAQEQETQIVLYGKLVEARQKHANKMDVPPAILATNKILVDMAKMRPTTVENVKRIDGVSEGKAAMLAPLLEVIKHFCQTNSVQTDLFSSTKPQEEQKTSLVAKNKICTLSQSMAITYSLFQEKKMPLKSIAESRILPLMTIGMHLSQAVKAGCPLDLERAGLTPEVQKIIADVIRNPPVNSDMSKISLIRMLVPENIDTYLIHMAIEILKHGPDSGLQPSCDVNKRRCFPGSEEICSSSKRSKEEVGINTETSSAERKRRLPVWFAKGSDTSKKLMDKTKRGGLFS
How it was run: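 200 pM enzyme (2× stock) preincubated with compound 4 h at ambient temperature, then 200 μM ATP and 12 nM quenched TAMRA-labelled dsDNA (2× stocks) added for 60 min; EDTA-quenched. Buffer 25 mM Tris pH 8.0, 5 mM NaCl, 2 mM MgCl2. Fluorescence at 525/598 nm; pIC50 from four-parameter fit.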

[2] = Cell culture media unbound percentage and stability by rapid equilibrium dialysis (Example C); assay type: in vitro ADME; conditions: bovine, cell assay medium (RPMI-1640 with 10% fetal bovine serum), pH 7.4, rapid equilibrium dialysis, 4 hours at 37° C., read-out: Cell Culture Media Binding (% unbound)
How it was run: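 Compound spiked into cell culture medium at nominal 1 μM and dialysed against PBS (100 mM sodium phosphate + 150 mM NaCl, pH 7.4) by rapid equilibrium dialysis, triplicate, 4 h at 37° C with shaking. LC-MS/MS peak area ratios gave percent unbound (receiver/donor) and percent stability (240 min vs 0 min).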

[3] = system: SW48 human colorectal cancer cells; assay: Calculated free drug potency in SW48 cell assay, corrected with media free fraction (Example C); assay type: cell-based; conditions: Homo sapiens, SW48, SW48 pCC50 corrected with measured free fraction in cell assay media
How it was run: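 Compound spiked at nominal 1 μM into cell assay medium and dialysed against PBS (100 mM sodium phosphate, 150 mM NaCl, pH 7.4) by rapid equilibrium dialysis, 4 h, 37 °C, shaking. Percent unbound from LC-MS/MS peak area ratios (240 min vs 0 min); cell assay concentrations corrected by this free fraction.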

[4] = system: SW48 human colorectal cancer cells (MSI-H cancer cells); assay: SW48 cell viability, CellTiter-Glo, 120 hours (Example B); conditions: Homo sapiens
[5] = SW48, 120 h, read-out: SW48 pCC50, SW48 cell viability, 120 hours incubation (converted), Table 2
[6] = SW48, read-out: SW48 pCC50, measured potency from Example B, as repeated in Table 3 (converted)

Compound	IC50 [1] [nM]	fraction unbound at 4 h, 1 µM [2]	CC50 [3] [nM]	CC50 [4, 5] [nM]	CC50 [4, 6] [nM]
COCCO[C@@H]1C[C@H](c2ccc(N(C)S(=O)(=O)c3ccc4c(c3)nc(C)n4C)cc2)[C@@H](C(=O)O)[C@H](C(=O)Nc2ccc(C(F)(F)F)cc2F)C1 (stereo in doubt) [Example 316, rel-(1R,2R,4R,6S)-2-((2-fluoro-4-(trifluoromethyl)phenyl)carbamoyl)-4-(2-methoxyethoxy)-6-(4-((N,1,2-trimethyl-1H-benzo[d]imidazole)-5-sulfonamido)phenyl)cyclohexane-1-carboxylic acid]	1.58	0.19	30.2	158	158
Cc1nc2cc(S(=O)(=O)N(C)c3ccc([C@H]4C[C@@H](OC[C@H]5CCOC5)C[C@@H](C(=O)Nc5ccc(C(F)(F)F)cc5F)[C@@H]4C(=O)O)cc3)ccc2n1C (stereo in doubt) [Example 317, (1R*,2R*,4R*,6S*)-2-((2-fluoro-4-(trifluoromethyl)phenyl)carbamoyl)-4-(((S)-tetrahydrofuran-3-yl)methoxy)-6-(4-((N,1,2-trimethyl-1H-benzo[d]imidazole)-5-sulfonamido)phenyl)cyclohexane-1-carboxylic acid]	1.58	0.15	12	79.4	79.4
Cc1nc2cc(S(=O)(=O)N(C)c3ccc([C@H]4C[C@@H](OC[C@@H]5CCOC5)C[C@@H](C(=O)Nc5ccc(C(F)(F)F)cc5F)[C@@H]4C(=O)O)cc3)ccc2n1C (stereo in doubt) [Example 320, (1R*,2R*,4R*,6S*)-2-((2-fluoro-4-(trifluoromethyl)phenyl)carbamoyl)-4-(((R)-tetrahydrofuran-3-yl)methoxy)-6-(4-((N,1,2-trimethyl-1H-benzo[d]imidazole)-5-sulfonamido)phenyl)cyclohexane-1-carboxylic acid]	3.98	0.112	8.91	79.4	79.4
Cc1nc2cc(S(=O)(=O)N(C)c3ccc([C@@H]4C[C@H](O[C@@H]5CCOC5)C[C@H](C(=O)Nc5ccc(C(F)(F)F)cc5F)[C@H]4C(=O)O)cc3)ccc2n1C (stereo in doubt) [Example 322, (1R*,2R*,4R*,6S*)-2-((2-fluoro-4-(trifluoromethyl)phenyl)carbamoyl)-4-(((R)-tetrahydrofuran-3-yl)oxy)-6-(4-((N,1,2-trimethyl-1H-benzo[d]imidazole)-5-sulfonamido)phenyl)cyclohexane-1-carboxylic acid]	20	0.362	3630	10000	
Cc1nc2cc(S(=O)(=O)N(C)c3ccc([C@H]4C[C@@H](O[C@H]5CCOC5)C[C@@H](C(=O)Nc5ccc(C(F)(F)F)cc5F)[C@@H]4C(=O)O)cc3)ccc2n1C (stereo in doubt) [Example 323, (1R*,2R*,4R*,6S*)-2-((2-fluoro-4-(trifluoromethyl)phenyl)carbamoyl)-4-(((S)-tetrahydrofuran-3-yl)oxy)-6-(4-((N,1,2-trimethyl-1H-benzo[d]imidazole)-5-sulfonamido)phenyl)cyclohexane-1-carboxylic acid]	1.58	0.144	14.5	100	100
Cc1nc2cc(S(=O)(=O)N(C)c3ccc([C@H]4C[C@@H](OC5CCC5)C[C@@H](C(=O)Nc5ccc(C(F)(F)F)cc5F)[C@@H]4C(=O)O)cc3)ccc2n1C (stereo in doubt) [Example 325, rel-(1R,2R,4R,6S)-4-cyclobutoxy-2-((2-fluoro-4-(trifluoromethyl)phenyl)carbamoyl)-6-(4-((N,1,2-trimethyl-1H-benzo[d]imidazole)-5-sulfonamido)phenyl)cyclohexane-1-carboxylic acid]	2	0.0862	17.4	200	200
Cc1nc2cc(S(=O)(=O)N(C)c3ccc([C@H]4C[C@@H](OC[C@@H]5COCCO5)C[C@@H](C(=O)Nc5ccc(C(F)(F)F)cc5F)[C@@H]4C(=O)O)cc3)ccc2n1C (stereo in doubt) [Example 329, (1R*,2R*,4R*,6S*)-4-(((S)-1,4-dioxan-2-yl)methoxy)-2-((2-fluoro-4-(trifluoromethyl)phenyl)carbamoyl)-6-(4-((N,1,2-trimethyl-1H-benzo[d]imidazole)-5-sulfonamido)phenyl)cyclohexane-1-carboxylic acid]	1.58	0.205	12.9	63.1	63.1
Cc1nc2cc(S(=O)(=O)N(C)c3ccc([C@@H]4C[C@H](NCC(F)(F)F)C[C@H](C(=O)Nc5ccc(C(F)(F)F)cc5F)[C@H]4C(=O)O)cc3)ccc2n1C (stereo in doubt) [Example 333, rel-(1R,2R,4R,6S)-2-((2-fluoro-4-(trifluoromethyl)phenyl)carbamoyl)-4-((2,2,2-trifluoroethyl)amino)-6-(4-((N,1,2-trimethyl-1H-benzo[d]imidazole)-5-sulfonamido)phenyl)cyclohexane-1-carboxylic acid]	126	0.326	3240	10000	
Cc1nc2cc(S(=O)(=O)N(C)c3ccc([C@H]4C[C@@H](NCC(F)(F)F)C[C@@H](C(=O)Nc5ccc(C(F)(F)F)cc5F)[C@@H]4C(=O)O)cc3)ccc2n1C (stereo in doubt) [Example 334, rel-(1R,2R,4R,6S)-2-((2-fluoro-4-(trifluoromethyl)phenyl)carbamoyl)-4-((2,2,2-trifluoroethyl)amino)-6-(4-((N,1,2-trimethyl-1H-benzo[d]imidazole)-5-sulfonamido)phenyl)cyclohexane-1-carboxylic acid]	1.58	0.183	45.7	251	251

Now from value to molecule, other results behind:

IC50 [1] [nM]	fraction unbound at 4 h, 1 µM [2]	Compound	CC50 [3] [nM]	CC50 [4, 5] [nM]	CC50 [4, 6] [nM]
1.58	0.0491	Cc1nc2cc(S(=O)(=O)N(C)c3ccc([C@H]4C[C@H](NCC(F)(F)F)C[C@@H](C(=O)Nc5ccc(C(F)(F)F)cc5F)[C@@H]4C(=O)O)cc3)ccc2n1C (stereo in doubt) [Example 336, rel-(1R,2R,4S,6S)-2-((2-fluoro-4-(trifluoromethyl)phenyl)carbamoyl)-4-((2,2,2-trifluoroethyl)amino)-6-(4-((N,1,2-trimethyl-1H-benzo[d]imidazole)-5-sulfonamido)phenyl)cyclohexane-1-carboxylic acid]	155	3160	3160
100	0.237	Cc1nc2cc(S(=O)(=O)N(C)c3ccc([C@@H]4C[C@H](N5CCC(F)(F)CC5)C[C@H](C(=O)Nc5ccc(C(F)(F)F)cc5F)[C@H]4C(=O)O)cc3)ccc2n1C (stereo in doubt) [Example 343]	1170	5010	5010
5.01	0.118	Cc1nc2cc(S(=O)(=O)N(C)c3ccc([C@H]4C[C@@H](N5CCC(F)(F)CC5)C[C@@H](C(=O)Nc5ccc(C(F)(F)F)cc5F)[C@@H]4C(=O)O)cc3)ccc2n1C (stereo in doubt) [Example 344]	14.8	126	126
3980	0.419	Cc1nc2cc(S(=O)(=O)N(C)c3ccc([C@@H]4C[C@@H](N5CCC[C@@H](F)C5)C[C@H](C(=O)Nc5ccc(C(F)(F)F)cc5F)[C@H]4C(=O)O)cc3)ccc2n1C (stereo in doubt) [Example 346, rel-(1R*,2R*,4S*,6S*)-2-((2-fluoro-4-(trifluoromethyl)phenyl)carbamoyl)-4-((R)-3-fluoropiperidin-1-yl)-6-(4-((N,1,2-trimethyl-1H-benzo[d]imidazole)-5-sulfonamido)phenyl)cyclohexane-1-carboxylic acid]	4170	10000	
1.58	0.218	Cc1nc2cc(S(=O)(=O)N(C)c3ccc([C@H]4C[C@@H](N5CCC[C@H](F)C5)C[C@@H](C(=O)Nc5ccc(C(F)(F)F)cc5F)[C@@H]4C(=O)O)cc3)ccc2n1C (stereo in doubt) [Example 350, rel-(1R*,2R*,4R*,6S*)-2-((2-fluoro-4-(trifluoromethyl)phenyl)carbamoyl)-4-((S)-3-fluoropiperidin-1-yl)-6-(4-((, 1,2-trimethyl-1H-benzo[d]imidazole)-5-sulfonamido)phenyl)cyclohexane-1-carboxylic acid]	13.8	63.1	63.1
